This is an account of results in patent publication US20150231199A1, “PEPTIDES AND THEIR USES” (priority 2012, published 2015).

SMILES strings stand for the structures. Converted amounts (≈) assume the structure as drawn. Positions of bridges follow the written chain, without caps; N, C: chain ends. Residues, ends and D or L forms follow the SMILES beside them. Chains are numbered I, II in the order given. *: point of attachment. Lauroyl = CCCCCCCCCCCC(=O)*; Decanoyl = CCCCCCCCCC(=O)*; Octanoyl = CCCCCCCC(=O)*; Hexanoyl = CCCCCC(=O)*; Butyryl = CCCC(=O)*

The test system of data set [1] is Klebsiella pneumoniae DM4299. Type of data set: cell-based. The protocol:
(§1) V2-dimer and all lipopeptides (FIG. 1A) used in this study were purchased from Mimotopes. All peptides were prepared by dissolving in sterile water to make 1000 μg/mL stock solutions. Minimum Inhibitory Concentration (MIC) determination was carried out in Mueller Hinton Broth (MHB) using the broth macro-dilution method as described by the Clinical and Laboratory Standards Institute (CLSI). Then, cation-adjusted MHB (CA-MHB) was used to prepare serial two fold dilutions of the compounds in test tubes. The concentration of the inoculums suspension was also adjusted to approximately 5×10^5 Colony Forming Units (CFU)/mL using MHB. Bacteria were incubated with the compounds for 24 hours at 35° C. prior to reading. In this study, Gram-positive strains used were Staphylococcus aureus DM4001 and Methicillin-resistant Staphylococcus aureus (MRSA) DM9808. Gram-negative strains used were Klebsiella pneumoniae DM4299, Pseudomonas aeruginosa ATCC23155 and Escherichia coli ATCC27922.

Another data set relates to Pseudomonas aeruginosa. Type of data set: cell-based. The protocol:
as §1
(§2) Methods used are as described in Example 1 above.

The next data set deals with Staphylococcus aureus. Type of data set: cell-based. How it is done:
as §1, §2

In data set [2] the test system is Methicillin-resistant Staphylococcus aureus (MRSA). Type of data set: cell-based. The protocol:
as §1, §2

The subject of data set [3] is red blood cells (RBCs) of New Zealand white rabbits. The data set can be described thus: in vitro. It counts as cell-based, rabbit. To be noted: red cells of rabbit, 1 h. The protocol:
Fresh red blood cells (RBCs) of New Zealand white rabbits were used for this experiment. The RBCs obtained were centrifuged at 3000 rpm for 10 min. Supernatant was removed and washed twice with sterile PBS Buffer (20 mM, 100 mM NaCl, pH 7). The RBCs were further diluted to 8% stock solution in PBS. Peptides were dissolved in PBS with desired stock concentrations. When compounds were mixed with RBCs, desired concentration of 4% RBCs was obtained. For C14V2D and C16V2D, they were dissolved in Dimethylformamide ([…]; DMF) with desired stock concentrations. When compounds were mixed with RBCs, desired concentration of 4% RBCs and 0.5% DMF was obtained. DMF concentration of <1% was used as it had negligible hemolytic activity on RBCs. The mixtures were added to 1.5 mL centrifuge tubes and incubated at 37° C. for 1 h. After incubation, the blood was centrifuged at 3000 rpm for 3 min at 4° C. 100 μL of the supernatant was transferred into transparent 96-well plate. The absorbance was measured at 576 nm using a microplate reader (TECAN Infinite 200M Pro). 2% Triton X-100 was used as positive control. PBS was used as negative controls. The amount of hemoglobin released was calculated using the following equation: […]

The test system of data set [4] is Escherichia coli ATCC27922. Type of data set: cell-based. The protocol: as §1

Broadly, the MIC is the lowest concentration found to suppress growth. A high value points to weaker potency. `CC(=O)N[C@@H](CCCNC(=N)N)C(=O)NCC(=O)N[C@@H](CCCNC(=N)N)C(=O)N[C@@H](CCCCN)C(=O)NCC(=O)NCC(=O)N[C@@H](CCCNC(=N)N)C(=O)N[C@@H](CCCNC(=N)N)C(=O)NCCCC[C@H](NC(=O)[C@H](CCCNC(=N)N)NC(=O)[C@H](CCCNC(=N)N)NC(=O)CNC(=O)CNC(=O)[C@H](CCCCN)NC(=O)[C@H](CCCNC(=N)N)NC(=O)CNC(=O)[C@H](CCCNC(=N)N)NC(C)=O)C(=O)N[C@@H](CCCCN)C(=O)O` [Peptide C2-G2D, (CH3—CO—NH—RGRKGGRR)2KK] (I: Ac-RGRKGGRRKK-OH / II: Ac-RGRKGGRR; amide I:9-II:C; N-terminus and C-terminus assumed): the minimum inhibitory concentration (MIC) turned out to be 5.66 µM (≈ 12.5 µg/mL) in data set [1], 2.83 µM (≈ 6.24 µg/mL) against Pseudomonas aeruginosa, 5.52 µM (≈ 12.2 µg/mL) in the data set with Staphylococcus aureus and 5.66 µM (≈ 12.5 µg/mL) in data set [2].
In the case of `CC(=O)N[C@@H](CCCNC(=N)N)C(=O)NCC(=O)N[C@@H](CCCNC(=N)N)C(=O)N[C@@H](CCCCN)C(=O)N[C@H](C(=O)N[C@H](C(=O)N[C@@H](CCCNC(=N)N)C(=O)N[C@@H](CCCNC(=N)N)C(=O)NCCCC[C@H](NC(=O)[C@H](CCCNC(=N)N)NC(=O)[C@H](CCCNC(=N)N)NC(=O)[C@@H](NC(=O)[C@@H](NC(=O)[C@H](CCCCN)NC(=O)[C@H](CCCNC(=N)N)NC(=O)CNC(=O)[C@H](CCCNC(=N)N)NC(C)=O)C(C)C)C(C)C)C(=O)N[C@@H](CCCCN)C(=O)O)C(C)C)C(C)C` [Peptide C2-V2D, (CH3—CO—NH—RGRKVVRR)2KK] (I: Ac-RGRKVVRRKK-OH / II: Ac-RGRKVVRR; amide I:9-II:C), in data set [3], the HC10 was greater than 2000 µg/mL. The MIC in data set [1] worked out at 5.26 µM (≈ 12.5 µg/mL); in data set [4], 2.63 µM (≈ 6.25 µg/mL); with Pseudomonas aeruginosa it was 5.26 µM (≈ 12.5 µg/mL); with Staphylococcus aureus, 5.26 µM (≈ 12.5 µg/mL); in data set [2], 2.63 µM (≈ 6.25 µg/mL).
`CCCC(=O)N[C@@H](CCCNC(=N)N)C(=O)NCC(=O)N[C@@H](CCCNC(=N)N)C(=O)N[C@@H](CCCCN)C(=O)NCC(=O)NCC(=O)N[C@@H](CCCNC(=N)N)C(=O)N[C@@H](CCCNC(=N)N)C(=O)NCCCC[C@H](NC(=O)[C@H](CCCNC(=N)N)NC(=O)[C@H](CCCNC(=N)N)NC(=O)CNC(=O)CNC(=O)[C@H](CCCCN)NC(=O)[C@H](CCCNC(=N)N)NC(=O)CNC(=O)[C@H](CCCNC(=N)N)NC(=O)CCC)C(=O)N[C@@H](CCCCN)C(=O)O` [Peptide C4-G2D, (C3H7—CO—NH—RGRKGGRR)2KK] (I: Butyryl-RGRKGGRRKK-OH / II: Butyryl-RGRKGGRR; amide I:9-II:C; N-terminus and C-terminus assumed): the MIC in data set [1] was found to be 5.52 µM (≈ 12.5 µg/mL); against Pseudomonas aeruginosa, 2.76 µM (≈ 6.25 µg/mL); against Staphylococcus aureus, 5.39 µM (≈ 12.2 µg/mL); in data set [2], 5.52 µM (≈ 12.5 µg/mL).
On to `CCCC(=O)N[C@@H](CCCNC(=N)N)C(=O)NCC(=O)N[C@@H](CCCNC(=N)N)C(=O)N[C@@H](CCCCN)C(=O)N[C@H](C(=O)N[C@H](C(=O)N[C@@H](CCCNC(=N)N)C(=O)N[C@@H](CCCNC(=N)N)C(=O)NCCCC[C@H](NC(=O)[C@H](CCCNC(=N)N)NC(=O)[C@H](CCCNC(=N)N)NC(=O)[C@@H](NC(=O)[C@@H](NC(=O)[C@H](CCCCN)NC(=O)[C@H](CCCNC(=N)N)NC(=O)CNC(=O)[C@H](CCCNC(=N)N)NC(=O)CCC)C(C)C)C(C)C)C(=O)N[C@@H](CCCCN)C(=O)O)C(C)C)C(C)C` [Peptide C4-V2D, (C3H7—CO—NH—RGRKVVRR)2KK] (I: Butyryl-RGRKVVRRKK-OH / II: Butyryl-RGRKVVRR; amide I:9-II:C), for which the HC10 in data set [3] is greater than 2000 µg/mL. Further, the MIC in data set [1] was 5.14 µM (≈ 12.5 µg/mL); in data set [4] it was 2.57 µM (≈ 6.25 µg/mL); in the data set with Pseudomonas aeruginosa it was 10.28 µM (≈ 25 µg/mL); with Staphylococcus aureus, 2.57 µM (≈ 6.25 µg/mL); in data set [2] it was 2.57 µM (≈ 6.25 µg/mL).
As for `CCCCCC(=O)N[C@@H](CCCNC(=N)N)C(=O)NCC(=O)N[C@@H](CCCNC(=N)N)C(=O)N[C@@H](CCCCN)C(=O)NCC(=O)NCC(=O)N[C@@H](CCCNC(=N)N)C(=O)N[C@@H](CCCNC(=N)N)C(=O)NCCCC[C@H](NC(=O)[C@H](CCCNC(=N)N)NC(=O)[C@H](CCCNC(=N)N)NC(=O)CNC(=O)CNC(=O)[C@H](CCCCN)NC(=O)[C@H](CCCNC(=N)N)NC(=O)CNC(=O)[C@H](CCCNC(=N)N)NC(=O)CCCCC)C(=O)N[C@@H](CCCCN)C(=O)O` [Peptide C6-G2D, (C5H11—CO—NH—RGRKGGRR)2KK] (I: Hexanoyl-RGRKGGRRKK-OH / II: Hexanoyl-RGRKGGRR; amide I:9-II:C; N-terminus and C-terminus assumed), the MIC in data set [1] stood at 2.70 µM (≈ 6.26 µg/mL); against Pseudomonas aeruginosa, 5.39 µM (≈ 12.5 µg/mL); with Staphylococcus aureus, 5.26 µM (≈ 12.2 µg/mL); in data set [2] it was 2.70 µM (≈ 6.26 µg/mL).
Consider `CCCCCCCC(=O)N[C@@H](CCCNC(=N)N)C(=O)NCC(=O)N[C@@H](CCCNC(=N)N)C(=O)N[C@@H](CCCCN)C(=O)NCC(=O)NCC(=O)N[C@@H](CCCNC(=N)N)C(=O)N[C@@H](CCCNC(=N)N)C(=O)NCCCC[C@H](NC(=O)[C@H](CCCNC(=N)N)NC(=O)[C@H](CCCNC(=N)N)NC(=O)CNC(=O)CNC(=O)[C@H](CCCCN)NC(=O)[C@H](CCCNC(=N)N)NC(=O)CNC(=O)[C@H](CCCNC(=N)N)NC(=O)CCCCCCC)C(=O)N[C@@H](CCCCN)C(=O)O` [Peptide C8-G2D, (C7H15—CO—NH—RGRKGGRR)2KK] (I: Octanoyl-RGRKGGRRKK-OH / II: Octanoyl-RGRKGGRR; amide I:9-II:C; N-terminus and C-terminus assumed), for which the MIC was 2.63 µM (≈ 6.25 µg/mL) in data set [1], 2.63 µM (≈ 6.25 µg/mL) in the data set on Pseudomonas aeruginosa, 2.57 µM (≈ 6.1 µg/mL) in the data set with Staphylococcus aureus and 2.63 µM (≈ 6.25 µg/mL) in data set [2].
Consider `CCCCCCCCCC(=O)N[C@@H](CCCNC(=N)N)C(=O)NCC(=O)N[C@@H](CCCNC(=N)N)C(=O)N[C@@H](CCCCN)C(=O)NCC(=O)NCC(=O)N[C@@H](CCCNC(=N)N)C(=O)N[C@@H](CCCNC(=N)N)C(=O)NCCCC[C@H](NC(=O)[C@H](CCCNC(=N)N)NC(=O)[C@H](CCCNC(=N)N)NC(=O)CNC(=O)CNC(=O)[C@H](CCCCN)NC(=O)[C@H](CCCNC(=N)N)NC(=O)CNC(=O)[C@H](CCCNC(=N)N)NC(=O)CCCCCCCCC)C(=O)N[C@@H](CCCCN)C(=O)O` [Peptide C10-G2D, (C9H19—CO—NH—RGRKGGRR)2KK] (I: Decanoyl-RGRKGGRRKK-OH / II: Decanoyl-RGRKGGRR; amide I:9-II:C; N-terminus and C-terminus assumed), for which the minimal inhibitory concentration (MIC) in data set [1] was 2.57 µM (≈ 6.25 µg/mL); against Pseudomonas aeruginosa, 2.57 µM (≈ 6.25 µg/mL); against Staphylococcus aureus, 2.51 µM (≈ 6.1 µg/mL); in data set [2], 2.57 µM (≈ 6.25 µg/mL).
On to `CCCCCCCCCCCC(=O)N[C@@H](CCCNC(=N)N)C(=O)NCC(=O)N[C@@H](CCCNC(=N)N)C(=O)N[C@@H](CCCCN)C(=O)NCC(=O)NCC(=O)N[C@@H](CCCNC(=N)N)C(=O)N[C@@H](CCCNC(=N)N)C(=O)NCCCC[C@H](NC(=O)[C@H](CCCNC(=N)N)NC(=O)[C@H](CCCNC(=N)N)NC(=O)CNC(=O)CNC(=O)[C@H](CCCCN)NC(=O)[C@H](CCCNC(=N)N)NC(=O)CNC(=O)[C@H](CCCNC(=N)N)NC(=O)CCCCCCCCCCC)C(=O)N[C@@H](CCCCN)C(=O)O` [Peptide C12-G2D, (C11H23—CO—NH—RGRKGGRR)2KK] (I: Lauroyl-RGRKGGRRKK-OH / II: Lauroyl-RGRKGGRR; amide I:9-II:C; N-terminus and C-terminus assumed), for which the MIC in data set [1] was 40.21 µM (≈ 100 µg/mL); with Pseudomonas aeruginosa, greater than 40.21 µM; with Staphylococcus aureus, greater than 40.21 µM; in data set [2] it was 40.21 µM (≈ 100 µg/mL).
